This is an account of results in patent US20050075375A1 (priority 2003, published 2005).

The assay deals with monocistronic NK5.1 HCV replicon in Huh7 cells. Put plainly: HCV replicon assay, monocistronic replicon cell line. The class given is cell-based, hepatitis C virus. The settings on record: Hepatitis C virus, Huh-7, 72 h; table T3 (compounds 471-640); monocistronic replicon in Huh7 cells, 3 days incubation, HCV RNA/GAPDH RNA by TaqMan RT-PCR; read-out: Mono EC50 Median. The essentials:
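EC50 derives from the HCV RNA/GAPDH RNA ratio by one-step TaqMan RT-PCR, relative to DMSO-only wells. Compounds (six half-log concentrations, 0.6% DMSO) were incubated 3 days at 37 °C with NK5.1 monocistronic replicon Huh7 cells plated a day earlier.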

As to `CC(=O)Nc1ccc(-c2n[nH]c(-c3cc(Br)ccc3O)n2)nc1` [Compound 593, N-{6-[5-(5-Bromo-2-hydroxy-phenyl)-1H-[1,2,4]triazol-3-yl]-pyridin-3-yl}-acetamide], the EC50 was found to be 48.7 µM.

As for `COc1ccc(O)c(-c2nc(-c3ccc(N)cn3)n[nH]2)c1` [Compound 594, 2-[5-(5-Amino-pyridin-2-yl)-2H-[1,2,4]triazol-3-yl]-4-methoxy-phenol], the EC50 is greater than 19 µM.

Regarding `COc1ccc(O)c(-c2nc(-c3ccc(NC(C)=O)cn3)n[nH]2)c1` [Compound 595, N-{6-[5-(5-methoxy-2-hydroxy-phenyl)-1H-[1,2,4]triazol-3-yl]-pyridin-3-yl}-acetamide], the EC50 was 41.8 µM.

For the molecule `Cn1nc(-c2ccccn2)nc1-c1cc(Br)ccc1O` [Compound 596, 4-Bromo-2-(2-methyl-5-pyridin-2-yl-2H-[1,2,4]triazol-3-yl)-phenol], the EC50 is 15 µM.

In the case of `Cn1nc(-c2ccccn2)nc1-c1cc([N+](=O)[O-])ccc1O` [Compound 597, 4-Nitro-2-(2-methyl-5-pyridin-2-yl-2H-[1,2,4]triazol-3-yl)-phenol], the EC50 worked out at 11 µM.

For the molecule `COc1ccc(O)c(-c2nc(-c3ccccn3)nn2C)c1` [Compound 598, 4-Methoxy-2-(2-methyl-5-pyridin-2-yl-2H-[1,2,4]triazol-3-yl)-phenol], the EC50 was greater than 32 µM.

With `Cn1nc(-c2ccccn2)nc1-c1cc(Cl)ccc1O` [Compound 599, 4-Chloro-2-(2-methyl-5-pyridin-2-yl-2H-[1,2,4]triazol-3-yl)-phenol], the EC50 was 12 µM.

`Cn1nc(-c2ccccn2)nc1-c1ccc(OCc2ccccc2)cc1O` [Compound 600, 5-Benzyloxy-2-(2-methyl-5-pyridin-2-yl-2H-[1,2,4]triazol-3-yl)-phenol]: the EC50 is 5 µM.

As to `COc1ccc(-c2nc(-c3ccccn3)nn2C)c(O)c1` [Compound 601, 5-Methoxy-2-(2-methyl-5-pyridin-2-yl-2H-[1,2,4]triazol-3-yl)-phenol], the EC50 is greater than 32 µM.

On to `Cn1nc(-c2ccccn2)nc1-c1ccccc1O` [Compound 602, 2-(2-methyl-5-pyridin-2-yl-2H-[1,2,4]triazol-3-yl)-phenol], for which the EC50 was greater than 32 µM.

Take `COc1cccc(-c2nc(-c3ccccn3)nn2C)c1O` [Compound 603, 6-Methoxy-2-(2-methyl-5-pyridin-2-yl-2H-[1,2,4]triazol-3-yl)-phenol]: the EC50 is greater than 32 µM.

`Cn1nc(-c2ccccn2)nc1-c1cc(O)ccc1O` [Compound 604, 4-Hydroxy-2-(2-methyl-5-pyridin-2-yl-2H-[1,2,4]triazol-3-yl)-phenol]: the EC50 amounted to 37.6 µM.

Take `Cn1nc(-c2ccccn2)nc1-c1c(O)ccc2ccccc12` [Compound 605, 1-(2-methyl-5-Pyridin-2-yl-2H-[1,2,4]triazol-3-yl)-naphthalen-2-ol]: the EC50 came to 9 µM.

Turning to `Cn1nc(-c2ccccn2)nc1-c1ccc2ccccc2c1O` [Compound 606, 2-(2-Methyl-5-pyridin-2-yl-2H-[1,2,4]triazol-3-yl)-naphthalen-1-ol], the EC50 stood at 2.4 µM.

For the molecule `Cc1cccnc1-c1nc(-c2cc([N+](=O)[O-])ccc2O)n(C)n1` [Compound 607, 4-Nitro-2-[2-methyl-5-(3-methyl-pyridin-2-yl)-2H-[1,2,4]triazol-3-yl]-phenol], the EC50 was 2.8 µM.

Regarding `Cc1cccnc1-c1nc(-c2cc(F)ccc2O)n(C)n1` [Compound 608, 4-Fluoro-2-[2-methyl-5-(3-methyl-pyridin-2-yl)-2H-[1,2,4]triazol-3-yl]-phenol], the EC50 is 8.1 µM.

As for `COc1ccc(O)c(-c2nc(-c3ncccc3C)nn2C)c1` [Compound 609, 4-Methoxy-2-[2-methyl-5-(3-methyl-pyridin-2-yl)-2H-[1,2,4]triazol-3-yl]-phenol], the EC50 was 17 µM.

In the case of `Cc1cccnc1-c1nc(-c2cc(Cl)ccc2O)n(C)n1` [Compound 610, 4-Chloro-2-[2-methyl-5-(3-methyl-pyridin-2-yl)-2H-[1,2,4]triazol-3-yl]-phenol], the EC50 worked out at 2.5 µM.

`Cc1cccnc1-c1nc(-c2ccc(OCc3ccccc3)cc2O)n(C)n1` [Compound 611, 5-Benzyloxy-2-[2-methyl-5-(3-methyl-pyridin-2-yl)-2H-[1,2,4]triazol-3-yl]-phenol]: the EC50 was greater than 3.2 µM.

In the case of `Cc1cccnc1-c1nc(-c2cc(Br)ccc2O)n(C)n1` [Compound 612, 4-Bromo-2-[2-methyl-5-(3-methyl-pyridin-2-yl)-2H-[1,2,4]triazol-3-yl]-phenol], the EC50 came out at 2.4 µM.

Turning to `COc1ccc(-c2nc(-c3ncccc3C)nn2C)c(O)c1` [Compound 613, 5-Methoxy-2-[2-methyl-5-(3-methyl-pyridin-2-yl)-2H-[1,2,4]triazol-3-yl]-phenol], the EC50 worked out at 6.4 µM.

Consider `Cc1cccnc1-c1nc(-c2ccccc2O)n(C)n1` [Compound 614, 2-[2-methyl-5-(3-methyl-pyridin-2-yl)-2H-[1,2,4]triazol-3-yl]-phenol], for which the EC50 was determined as 6.9 µM.

As to `COc1cccc(-c2nc(-c3ncccc3C)nn2C)c1O` [Compound 615, 6-Methoxy-2-[2-methyl-5-(3-methyl-pyridin-2-yl)-2H-[1,2,4]triazol-3-yl]-phenol], the concentration for a half-maximal effect (EC50) is 18 µM.

`Cc1cccnc1-c1nc(-c2cc(O)ccc2O)n(C)n1` [Compound 616, 4-Hydroxy-2-[2-methyl-5-(3-methyl-pyridin-2-yl)-2H-[1,2,4]triazol-3-yl]-phenol]: the EC50 was determined as 35.8 µM.

`Cc1cccnc1-c1nc(-c2c(O)ccc3ccccc23)n(C)n1` [Compound 617, 1-[2-methyl-5-(3-methyl-pyridin-2-yl)-2H-[1,2,4]triazol-3-yl]-naphthalen-2-ol]: the EC50 was greater than 19 µM.

On to `Cc1cccnc1-c1nc(-c2ccc3ccccc3c2O)n(C)n1` [Compound 618, 2-[2-methyl-5-(3-methyl-pyridin-2-yl)-2H-[1,2,4]triazol-3-yl]-naphthalen-1-ol], for which the EC50 was 1.5 µM.

For the molecule `Oc1c(Cl)cc(Cl)cc1-c1nc(-c2ccccn2)n[nH]1` [Compound 619, 4,6-Dichloro-2-(5-pyridin-2-yl-2H-[1,2,4]triazol-3-yl)-phenol], the EC50 turned out to be 0.3 µM.

On to `Oc1c(Br)cc(Br)cc1-c1nc(-c2ccccn2)n[nH]1` [Compound 620, 4,6-Dibromo-2-(5-pyridin-2-yl-2H-[1,2,4]triazol-3-yl)-phenol], for which the EC50 turned out to be 0.6 µM.

`Oc1c(Br)cc(Cl)cc1-c1nc(-c2ccccn2)n[nH]1` [Compound 621, 4-Chloro-6-bromo-2-(5-pyridin-2-yl-2H-[1,2,4]triazol-3-yl)-phenol]: the EC50 is 0.5 µM.

For `Cc1cccnc1-c1n[nH]c(-c2cc(Cl)cc(Cl)c2O)n1` [Compound 622, 4,6-Dichloro-2-[5-(3-methyl-pyridin-2-yl)-2H-[1,2,4]triazol-3-yl]-phenol], the EC50 came to 1.4 µM.

`Cc1cccnc1-c1n[nH]c(-c2cc(Br)cc(Br)c2O)n1` [Compound 623, 4,6-Dibromo-2-[5-(3-methyl-pyridin-2-yl)-2H-[1,2,4]triazol-3-yl]-phenol]: the EC50 is 1.5 µM.

On to `Cc1cccnc1-c1n[nH]c(-c2cc(Cl)cc(Br)c2O)n1` [Compound 624, 4-Chloro-6-bromo-2-[5-(3-methyl-pyridin-2-yl)-2H-[1,2,4]triazol-3-yl]-phenol], for which the EC50 stood at 2.2 µM.
